ChEMBL document CHEMBL3286360, “Tuning the antimicrobial pharmacophore to enable discovery of short lipopeptides with multiple modes of action” (Eur J Med Chem, 2014)
Values after ≈ are worked out from the molar mass of the structure shown. Active and inactive are the calls of the source. No cut-off for these calls is given here. Where a SMILES comes first, the peptide text is derived from it. The star is where a group is joined. Stearoyl = CCCCCCCCCCCCCCCCCC(=O)*; Myristoyl = CCCCCCCCCCCCCC(=O)*; Decanoyl = CCCCCCCCCC(=O)*

Key:
Priestia megaterium = test: Binding affinity to Bacillus megaterium pHis1525 DNA at 25 to 50 ug/ml after 30 mins by agarose gel electrophoresis
Staphylococcus aureus = test: Antimicrobial activity against Staphylococcus aureus ATCC 12600 after 17 to 20 hrs by serial dilution method; type: functional
Escherichia coli = test: Antimicrobial activity against Escherichia coli ATCC 25922 after 17 to 20 hrs by serial dilution method; type: functional
Candida albicans = test: Antimicrobial activity against Candida albicans ATCC 14053 after 17 to 20 hrs by serial dilution method; type: functional
[1] = Cytotoxicity in human erythrocytes assessed as hemolysis at 250 ug/ml after 1 hr relative to control; type: cell-based, Erythrocyte; details: read-out: Activity
[2] = Cytotoxicity in human erythrocytes assessed as hemolysis at 125 ug/ml after 1 hr relative to control; type: cell-based, Erythrocyte; details: read-out: Activity

| Structure (SMILES) | Activity (Priestia megaterium) | MIC (Staphylococcus aureus) [µg/mL] | MIC (Escherichia coli) [µg/mL] | MIC (Candida albicans) [µg/mL] | hemolysis at 1 h, 250 ug/ml [1] [%] | hemolysis at 1 h, 125 ug/ml [2] [%] |
| --- | --- | --- | --- | --- | --- | --- |
| CCCCCCCCCC(=O)N[C@@H](CCCCN)C(=O)N[C@@H](Cc1c[nH]c2ccccc12)C(=O)N[C@@H](CCCCN)C(N)=O (Decanoyl-Lys-Trp-Lys-NH2) | – | 31.2 (≈ 50.8 µM) | > 31.2 | > 62.5 | < 10 | – |
| CCCCCCCCCCCCCC(=O)N[C@@H](CCCCN)C(=O)N[C@@H](Cc1c[nH]c2ccccc12)C(=O)N[C@@H](CCCCN)C(=O)N[C@@H](Cc1c[nH]c2ccccc12)C(N)=O (Myristoyl-KWKW-NH2) | – | 3.9 (≈ 4.56 µM) | 7.8 (≈ 9.11 µM) | > 62.5 | – | 17 |
| CCCCCCCCCCCCCC(=O)N[C@@H](CCCCN)C(=O)N[C@@H](Cc1c[nH]c2ccccc12)C(=O)N[C@@H](Cc1c[nH]c2ccccc12)C(=O)N[C@@H](CCCCN)C(N)=O (Myristoyl-KWWK-NH2) | – | 3.9 (≈ 4.56 µM) | 7.8 (≈ 9.11 µM) | 15.6 (≈ 18.2 µM) | – | 56 |
| CCCCCCCCCCCCCC(=O)N[C@@H](CCCNC(=N)N)C(=O)N[C@H](C(=O)N[C@@H](CCCCN)C(=O)N[C@@H](Cc1c[nH]c2ccccc12)C(=O)N[C@@H](CCCCN)C(N)=O)[C@@H](C)CC (Myristoyl-RIKWK-NH2) | – | 15.6 (≈ 16.6 µM) | 15.6 (≈ 16.6 µM) | > 62.5 | 20 | – |
| CCCCCCCCCCCCCCCCCC(=O)N[C@@H](CCCCN)C(=O)N[C@@H](Cc1c[nH]c2ccccc12)C(=O)N[C@@H](CCCCN)C(=O)N[C@@H](Cc1c[nH]c2ccccc12)C(N)=O (Stearoyl-KWKW-NH2) | – | > 31.2 | > 31.2 | > 62.5 | – | – |
| CCCCCCCCCCCCCCCCCC(=O)N[C@@H](CCCCN)C(=O)N[C@@H](Cc1c[nH]c2ccccc12)C(=O)N[C@@H](CCCCN)C(N)=O (Stearoyl-Lys-Trp-Lys-NH2) | – | 31.2 (≈ 43 µM) | > 31.2 | > 62.5 | – | – |
| CCCCCCCCCCCCCCCCCC(=O)N[C@@H](CCCNC(=N)N)C(=O)N[C@H](C(=O)N[C@@H](CCCCN)C(=O)N[C@@H](Cc1c[nH]c2ccccc12)C(=O)N[C@@H](CCCCN)C(N)=O)[C@@H](C)CC (Stearoyl-RIKWK-NH2) | – | > 31.2 | > 31.2 | > 62.5 | – | – |
| CCCCCCCCCCCCCCCCCC(=O)N[C@@H](CCCNC(=N)N)C(=O)N[C@H](C(=O)N[C@@H](CCCCN)C(=O)N[C@@H](Cc1c[nH]c2ccccc12)C(=O)N[C@@H](Cc1c[nH]c2ccccc12)C(=O)N[C@@H](CCCCN)C(N)=O)[C@@H](C)CC (Stearoyl-RIKWWK-NH2) | – | 31.2 (≈ 26.4 µM) | > 31.2 | > 62.5 | – | – |
| CCCCCCCCCCCCCCCCCC(=O)N[C@@H](CCCNC(=N)N)C(=O)N[C@@H](Cc1c[nH]c2ccccc12)C(=O)N[C@@H](CCCNC(=N)N)C(=O)N[C@@H](Cc1c[nH]c2ccccc12)C(N)=O (Stearoyl-RWRW-NH2) | – | > 31.2 | > 31.2 | > 62.5 | – | – |

Further lines, with some results ahead:

| Activity (Priestia megaterium) | MIC (Staphylococcus aureus) [µg/mL] | MIC (Escherichia coli) [µg/mL] | MIC (Candida albicans) [µg/mL] | Structure (SMILES) | hemolysis at 1 h, 250 ug/ml [1] [%] | hemolysis at 1 h, 125 ug/ml [2] [%] |
| --- | --- | --- | --- | --- | --- | --- |
| Active | 7.8 (≈ 9.75 µM) | 7.8 (≈ 9.75 µM) | 31.2 (≈ 39 µM) | CCCCCCCCCC(=O)N[C@@H](CCCCN)C(=O)N[C@@H](Cc1c[nH]c2ccccc12)C(=O)N[C@@H](CCCCN)C(=O)N[C@@H](Cc1c[nH]c2ccccc12)C(N)=O (Decanoyl-KWKW-NH2) | – | – |
| Active | 3.9 (≈ 3.65 µM) | 7.8 (≈ 7.29 µM) | > 62.5 | CCCCCCCCCC(=O)N[C@@H](CCCNC(=N)N)C(=O)N[C@H](C(=O)N[C@@H](CCCCN)C(=O)N[C@@H](Cc1c[nH]c2ccccc12)C(=O)N[C@@H](Cc1c[nH]c2ccccc12)C(=O)N[C@@H](CCCCN)C(N)=O)[C@@H](C)CC (Decanoyl-RIKWWK-NH2) | – | – |
| – | 7.8 (≈ 11.6 µM) | 7.8 (≈ 11.6 µM) | > 62.5 | CCCCCCCCCCCCCC(=O)N[C@@H](CCCCN)C(=O)N[C@@H](Cc1c[nH]c2ccccc12)C(=O)N[C@@H](CCCCN)C(N)=O (Myristoyl-Lys-Trp-Lys-NH2) | 19 | 11 |
| – | > 31.2 | > 31.2 | > 62.5 | CCCCCCCCCCCCCCCCCC(=O)N[C@@H](CCCCN)C(=O)N[C@H](C(=O)N[C@@H](CCCNC(=N)N)C(=O)N[C@@H](Cc1c[nH]c2ccccc12)C(=O)N[C@@H](Cc1c[nH]c2ccccc12)C(=O)N[C@@H](CCCNC(=N)N)C(N)=O)[C@@H](C)CC (Stearoyl-KIRWWR-NH2) | – | – |
| – | > 31.2 | > 31.2 | > 62.5 | CCCCCCCCCCCCCCCCCC(=O)N[C@@H](CCCCN)C(=O)N[C@H](C(=O)N[C@@H](Cc1c[nH]c2ccccc12)C(=O)N[C@@H](Cc1c[nH]c2ccccc12)C(=O)N[C@@H](CCCCN)C(N)=O)[C@@H](C)CC (Stearoyl-KIWWK-NH2) | – | – |
| – | 15.6 (≈ 13.5 µM) | > 31.2 | > 62.5 | CCCCCCCCCCCCCCCCCC(=O)N[C@@H](CCCCN)C(=O)N[C@@H](CCCCN)C(=O)N[C@H](C(=O)N[C@@H](CCCNC(=N)N)C(=O)N[C@@H](Cc1c[nH]c2ccccc12)C(=O)N[C@@H](CCCNC(=N)N)C(N)=O)[C@@H](C)CC (Stearoyl-KKIRWR-NH2) | – | – |
| – | 31.2 (≈ 36.5 µM) | 31.2 (≈ 36.5 µM) | 31.2 (≈ 36.5 µM) | CCCCCCCCCCCCCCCCCC(=O)N[C@@H](CCCCN)C(=O)N[C@@H](CCCCN)C(=O)N[C@@H](Cc1c[nH]c2ccccc12)C(=O)N[C@@H](CCCCN)C(N)=O (Stearoyl-KKWK-NH2) | – | – |
| – | > 31.2 | > 31.2 | > 62.5 | CCCCCCCCCCCCCCCCCC(=O)N[C@@H](CCCCN)C(=O)N[C@@H](CCCCN)C(=O)N[C@@H](Cc1c[nH]c2ccccc12)C(=O)N[C@@H](Cc1c[nH]c2ccccc12)C(N)=O (Stearoyl-KKWW-NH2) | – | – |
| – | 15.6 (≈ 12.9 µM) | > 31.2 | > 62.5 | CCCCCCCCCCCCCCCCCC(=O)N[C@@H](CCCCN)C(=O)N[C@@H](CCCNC(=N)N)C(=O)N[C@H](C(=O)N[C@@H](Cc1c[nH]c2ccccc12)C(=O)N[C@@H](Cc1c[nH]c2ccccc12)C(=O)N[C@@H](CCCNC(=N)N)C(N)=O)[C@@H](C)CC (Stearoyl-KRIWWR-NH2) | – | – |
| – | > 31.2 | > 31.2 | > 62.5 | CCCCCCCCCCCCCCCCCC(=O)N[C@@H](CCCCN)C(=O)N[C@@H](Cc1c[nH]c2ccccc12)C(=O)N[C@@H](Cc1c[nH]c2ccccc12)C(=O)N[C@@H](CCCCN)C(N)=O (Stearoyl-KWWK-NH2) | – | – |
| – | 31.2 (≈ 29.2 µM) | 125 (≈ 117 µM) | > 62.5 | CCCCCCCCCCCCCCCCCC(=O)N[C@@H](CCCNC(=N)N)C(=O)N[C@@H](CCCCN)C(=O)N[C@@H](Cc1c[nH]c2ccccc12)C(=O)N[C@@H](Cc1c[nH]c2ccccc12)C(=O)N[C@@H](CCCCN)C(N)=O (Stearoyl-RKWWK-NH2) | – | – |
| – | 31.2 (≈ 32.2 µM) | > 31.2 | > 62.5 | CCCCCCCCCCCCCCCCCC(=O)N[C@@H](CCCNC(=N)N)C(=O)N[C@@H](Cc1c[nH]c2ccccc12)C(=O)N[C@@H](Cc1c[nH]c2ccccc12)C(=O)N[C@@H](CCCNC(=N)N)C(N)=O (Stearoyl-RWWR-NH2) | – | – |
